Laboratory results as given in US4632922A, “Oxomorpholinyl dimer and rescue of anthracycline and mitomycin C damage” (The United States of America as represented by the …, priority 1985, dated 1986).

Key:
[1] = Kinetics of reaction of DHM3 with daunorubicin in methanol solvent
Experimental: Oxomorpholinyl dimer DHM3 (5.8 mg) was dissolved in 100 ml of oxygen-free dichloromethane by stirring under nitrogen for 1 h. A portion of the solution (1.0 ml, 1.8×10^-4 mmol) of DHM3 was transferred via syringe to the spectrophotometric compartment of a two-compartment Pyrex cell with attachment for connection to a vacuum line with an Ultra Torr Union. The solvent was then evaporated with a stream of nitrogen. Daunorubicin hydrochloride (8.83 mg) was dissolved in 100 ml of a methanolic solution of 18.9 mg of tris(hydroxymethyl)aminomethane (Tris) and 24.7 mg of Tris hydrochloride. A portion of this solution (2.5 ml, 3.9×10^-4 mmol of 6) was introduced via syringe into the second compartment of the cell. The methanol solution was freeze (liquid nitrogen)-pump (2×10^-6 Torr)-thaw degassed through four cycles, sealed, and placed in a thermostatted cell holder at 25.1±0.1° C. for about 15 min. prior to mixing the solution with DHM3. After mixing, the average absorbance at 618 and 620 nm was recorded versus time. A non-linear least-squares treatment of the data as mentioned below gave a first order rate constant for bond homolysis of DHM3 equal to 1.8×10^-3 sec^-1.
The oxomorpholinyl dimer DHM3 causes reductive elimination of the sugar moiety, daunosamine, of daunorubicin (6) in much the same way as the structurally related bi(3,5,5-trimethyl-2-oxomorpholin-3-yl) (9). (See Schematic FIG. 2). […] The kinetics were established by regressional, non-linear least squares fitting of the absorbance versus time data to equation 1,
-k1))(e^-k.sbsp.1^t -e^-k.sbsp.2^t)
where At is the absorbance of 7 at time t, ε7 is the extinction coefficient of 7 at 618-620 nm, [DHM3]o is the concentration of DHM-3 at time zero, k1 is the rate constant for bond homolysis of DHM3 and k2 is the rate constant for tautomerization of 7 to 8. The value obtained for k1, 1.8×10^-3 sec^-1, was approximately half that obtained for bond homolysis of 9. […]

[2] = Stability of DHM3 in water upon exposure to air; type: physicochemical
Experimental: Oxazinone 2 (6.0 g, 0.019 mol) was dissolved in 500 ml of 2-propanol (Fisher). The solution was irradiated with a 450 W mercury immersion lamp through a Pyrex filter. Throughout the reacion the photochemical apparatus was immersed in a bath kept at 0° C. and nitrogen was bubbled through the solution. The disappearance of the oxazinone chromophore was monitored by UV spectroscopy. After 24 h, when the UV maximum at 323 nm had disappeared, the irradiation was stopped, and the solvent quickly rotary evaporated without delay at ambient temperature (20°-28° C.) first at 15-20 Torr, then at 1 Torr. The residue was dissolved in 70 ml of chloroform and the solution was stored in a freezer at about -18° C. for 6 days. The resulting pricipitate was collected by suction filtration, washed thoroughly with cold chloroform (≈10° C.) and dried under vaccuum to give 2.9 g (48%) of a white powder, mp 121°-124° C. An additional crop of crystals (0.64 g) was obtained from the mother liquors after two more weeks in the freezer. […] Minor peaks in the spectrum were present in areas compatible with the presence of other stereoisomers. Infrared and analytical data are as follows: IR (KBr) 3160, 2900, 1715, 1455, 1285, 1220, 1040, 770, 715 cm^-1; anal. calcd. for C14 H24 N2 O6 : C, 53.15; H, 7.65; N, 8.85. Found: C, 53.00; H, 7.70; N, 8.84. […]

**Q.** For `CC1(CO)COC(=O)C(C)(C2(C)NC(C)(CO)COC2=O)N1` (stereo not shown) [DHM3, bi(3,5-dimethyl-5-hydroxymethyl-2-oxomorpholin-3-yl)], which “reaction product with daunorubicin” value ([1]; 1:2 molar ratio, oxygen degassed methanol, 25° C.) is on record?
**A.** gives 7-deoxydaunorubicinone 8 as the only reaction product

**Q.** What about the “k1 relative to that obtained for bond homolysis of 9” value ([1]; methanol, 25° C.) of the same compound?
**A.** approximately half

**Q.** And the “first order rate constant for bond homolysis of DHM3 (k1)” value ([1]; methanol, 25.1±0.1° C., with daunorubicin)?
**A.** 0.0018 s⁻¹

**Q.** What about the “stability to air in water” value [2] of the same compound?
**A.** quickly gives rise to an absorption maximum at 310 nm, characteristic of the oxazinone
